The text below walks through data of patent US12552771B2, “Carboxylic acid containing azetidinyl compounds for the treatment of neurodegenerative diseases” (Celgene Corporation, priority 2021, dated 2026).

The target in the experiment is T1, S1P5 receptors (Homo sapiens, UniProt Q9H228).
T1 construct: expressed in transfected cells; host or cells: CHO cells (membranes)
T1 sequence (Q9H228 whole entry): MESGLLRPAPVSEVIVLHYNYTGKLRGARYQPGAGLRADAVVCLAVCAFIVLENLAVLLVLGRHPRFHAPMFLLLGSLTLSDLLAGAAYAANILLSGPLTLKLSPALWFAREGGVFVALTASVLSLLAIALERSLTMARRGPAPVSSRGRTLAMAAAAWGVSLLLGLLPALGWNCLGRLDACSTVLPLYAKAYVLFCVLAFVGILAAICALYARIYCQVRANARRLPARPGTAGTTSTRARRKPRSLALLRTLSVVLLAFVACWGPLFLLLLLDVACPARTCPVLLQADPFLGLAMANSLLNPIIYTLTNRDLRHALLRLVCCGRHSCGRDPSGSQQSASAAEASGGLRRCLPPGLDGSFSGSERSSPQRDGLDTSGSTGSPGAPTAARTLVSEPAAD
The experiment is described as follows: [35S]-GTPγS binding assay with CHO-S1P5 receptor membranes. Type of experiment: biochemical. The settings on record: membranes of CHO cells expressing recombinant S1P5 receptors; measure of S1P5 agonism. The procedure: CHO cells expressing recombinant S1P5 receptors were cultured in 500 cm^2 culture trays and, once confluent, rinsed and detached with cell-lifting buffer (10 mM HEPES, 154 mM NaCl, 6.85 mM EDTA, pH 7.4). Cells were then pelleted by centrifugation, resuspended, and homogenized in membrane preparation buffer (10 mM HEPES and 10 mM EDTA, pH 7.4) using a Polytron PT 1200E homogenizer (Kinematica, Luzern, Switzerland). Cellular proteins were pelleted by centrifugation at 48,000×g at 4° C. for 30 minutes. The resulting supernatant was discarded, and the pellet was re-suspended again in membrane preparation buffer, homogenized for a second time, and then centrifuged again as described above. The final cellular protein pellet was suspended in ice cold resuspension buffer (10 mM HEPES and 0.1 mM EDTA, pH 7.4), divided into aliquots, and stored at −80° C. until use.
Functional binding assays for [^35]-GTPγS were performed in 96-well non-binding surface plates with a final volume of 200 μL. The test compounds were serially diluted in DMSO and added to assay plates using a Tecan D300E digital printer with a total volume of […]. The control sphingosine-1-phosphate (SiP) was prepared separately by preparing a 400 μM stock solution from a 100 nmol pellet of SiP in 10 mM Na2CO3 with 2% […]. The serial dilution of SiP was done using complete assay buffer (20 mM HEPES, 10 mM MgCl2, 100 mM NaCl, 1 mM EDTA, 0.1% fatty acid free bovine serum albumin (BSA), and 30 μg/mL saponin, pH 7.4) and transferred to wells already containing 0.4 μL DMSO. All the wells were then loaded to a total volume of 40 μL of complete assay buffer, except the non-specific binding (NSB) wells. For NSB wells, 40 μL/well of 50 μM GTPγS (Sigma Aldrich, cat #G8634, St. Louis, MO) was added to wells containing 0.4 μL of DMSO. The assay was started by the addition of 120 μL/well of CHO-S1P receptor membrane solution containing 40 μg/mL of membrane protein, 16.67 μM guanosine diphosphate (GDP; Sigma Aldrich, cat #G7127, St. Louis, MO), and 2.5 mg/mL of WGA PVT SPA beads in complete buffer. Assay plates were then sealed and incubated at room temperature with gentle agitation for 30 minutes. Next, 40 μL/well of 1 nM of [^35]-GTPγS (PerkinElmer, cat #NEG030X250UC, Waltham, MA) in basic assay buffer (20 mM HEPES, 10 mM MgCl2, 100 mM NaCl, and 1 mM EDTA, pH7.4) was added to the assay plates to yield a final concentration of 200 pM and the plates were further incubated for 40 minutes at room temperature with gentle agitation. The assay was terminated by centrifugation of the plates at 1000 rpm for 3 minutes using an Eppendorf 5810R centrifuge (Eppendorf, Hamburg, Germany) and G protein bound radioactivity was quantitated using a MicroBeta2 microplate scintillation counter (PerkinElmer, Waltham, MA). As G protein bound radioactivity directly correlates to receptor activation and coupling to the G protein, this assay is a measure of S1P5 agonism.
With `Cc1cc(C2CN(c3ccc(C4CC4)c(Cl)c3)C2)cc(C)c1CN1CCC(C(=O)O)CC1` [Compound 49, 1-(4-(1-(3-chloro-4-cyclopropylphenyl)azetidin-3-yl)-2,6-dimethylbenzyl)-piperidine-4-carboxylic acid], the EC50 is 0.1 to 1 µM.
Consider `Cc1cc(N2CC(F)(c3c(Cl)cccc3Cl)C2)cc(C)c1CN1CCC(C(=O)O)CC1` [Compound 37, 1-(4-(3-(2,6-dichlorophenyl)-3-fluoroazetidin-1-yl)-2,6-dimethylbenzyl)-piperidine-4-carboxylic acid], for which the EC50 lay in the range of 0.01 to 0.1 µM.
In the case of `CCc1cccc(CC)c1N1CC(c2cc(C)c(CN3CCC(C(=O)O)CC3)c(C)c2)C1` [Compound 69, 1-(4-(1-(2,6-diethylphenyl)azetidin-3-yl)-2,6-dimethylbenzyl)piperidine-4-carboxylic acid], the EC50 was ≤ 0.01 µM.
On to `O=C(O)C1CCN(Cc2ccc(C3CN(c4ccc(C5CC5)c(Cl)c4)C3)cc2)CC1` [Compound 42, 1-(4-(1-(3-chloro-4-cyclopropylphenyl)azetidin-3-yl)benzyl)piperidine-4-carboxylic acid], for which the EC50 is 0.1 to 1 µM.
On to `O=C(O)C1CCN(Cc2ccc(C3CN(c4c(Cl)cccc4Cl)C3)c(F)c2)CC1` [Compound 22, 1-(4-(1-(2,6-dichlorophenyl)azetidin-3-yl)-3-fluorobenzyl)piperidine-4-carboxylic acid], for which the EC50 is ≤ 0.01 µM.
As to `Cc1cc(C2CN(c3cccc(F)c3)C2)cc(C)c1CN1CCC(C(=O)O)CC1` [Compound 47, 1-(4-(1-(3-fluorophenyl)azetidin-3-yl)-2,6-dimethylbenzyl)piperidine-4-carboxylic acid], the EC50 is 0.1 to 1 µM.
`O=C(O)C1CCN(C2CCc3cc(C4CN(c5cccc(F)c5)C4)ccc32)CC1` (single isomer, unassigned) [Compound 3a, 1-(5-(1-(3-fluorophenyl)azetidin-3-yl)-2,3-dihydro-1H-inden-1-yl)piperidine-4-carboxylic acid]: the EC50 lay within 0.1 to 1 µM.
For the compound `CCc1cccc(C)c1N1CC(c2cc(C)c(CN3CCC(C(=O)O)CC3)c(C)c2)C1` [Compound 68, 1-(4-(1-(2-ethyl-6-methylphenyl)azetidin-3-yl)-2,6-dimethylbenzyl)-piperidine-4-carboxylic acid], the 50% effective concentration (EC50) was ≤ 0.01 µM.
To `Cc1cc(C2CN(c3c(Cl)cccc3Cl)C2)cc(F)c1CN1CCC(C(=O)O)CC1` [Compound 50, 1-(4-(1-(2,6-dichlorophenyl)azetidin-3-yl)-2-fluoro-6-methylbenzyl)-piperidine-4-carboxylic acid] belongs ≤ 0.01 µM; to `O=C(O)C1CCN(Cc2ccc(C3CN(c4c(Cl)cccc4Cl)C3)c3ccccc23)CC1` [Compound 54, 1-((4-(1-(2,6-dichlorophenyl)azetidin-3-yl)naphthalen-1-yl)methyl)-piperidine-4-carboxylic acid], ≤ 0.01 µM.
For `Cc1cc(C2CN(c3c(Cl)cccc3Cl)C2)ccc1C(C)N1CCC(C(=O)O)CC1` (single isomer, unassigned) [Compound 16a, 1-(1-(4-(1-(2,6-dichlorophenyl)azetidin-3-yl)-2-methylphenyl)ethyl)piperidine-4-carboxylic acid], the EC50 lay in the range of 0.01 to 0.1 µM.
To `Cc1cc(C2CN(c3c(Cl)cccc3Cl)C2)ncc1CN1CCC(C(=O)O)CC1` [Compound 78, 1-((6-(1-(2,6-dichlorophenyl)azetidin-3-yl)-4-methylpyridin-3-yl)methyl)-piperidine-4-carboxylic acid] belongs 0.1 to 1 µM.
`Cc1cc(C2CN(c3c(Cl)cccc3Cl)C2)cc2c1C(N1CCC(C(=O)O)CC1)CC2` (racemic) [Compound 5, 1-(5-(1-(2,6-dichlorophenyl)azetidin-3-yl)-7-methyl-2,3-dihydro-1H-inden-1-yl)piperidine-4-carboxylic acid]: the concentration giving a half-maximal response (EC50) was ≤ 0.01 µM.
For the compound `Cc1cc(C2CN(c3cccc4ccccc34)C2)cc(C)c1CN1CCC(C(=O)O)CC1` [Compound 75, 1-(2,6-dimethyl-4-(1-(naphthalen-1-yl)azetidin-3-yl)benzyl)piperidine-4-carboxylic acid], the EC50 lay in the range of 0.1 to 1 µM.
Turning to `O=C(O)C1CCN(C2CCc3cc(C4CN(c5c(F)cccc5F)C4)ccc32)CC1` (single isomer, unassigned) [Compound 2b, 1-(5-(1-(2,6-difluorophenyl)azetidin-3-yl)-2,3-dihydro-1H-inden-1-yl)-piperidine-4-carboxylic acid], the EC50 lay in the range of 1 to 10 µM.
To `Cc1cc(C2CN(c3c(Cl)cccc3Cl)C2)cc(C#N)c1CN1CCC(C(=O)O)CC1` [Compound 58, 1-(2-cyano-4-(1-(2,6-dichlorophenyl)azetidin-3-yl)-6-methylbenzyl)-piperidine-4-carboxylic acid] belongs 0.01 to 0.1 µM; to `O=C(O)C1CCN(C2CCc3cc(C4CN(c5c(Cl)cccc5Cl)C4)ccc32)CC1` (single isomer, unassigned) [Compound 1a, 1-(5-(1-(2,6-dichlorophenyl)azetidin-3-yl)-2,3-dihydro-1H-inden-1-yl)piperidine-4-carboxylic acid], ≤ 0.01 µM; to `Cc1cc(C2CN(c3c(Cl)cccc3Cl)C2)cc(C)c1CN1CC[C@H](C(=O)O)C1` [Compound 62, (S)-1-(4-(1-(2,6-dichlorophenyl)azetidin-3-yl)-2,6-dimethylbenzyl)-pyrrolidine-3-carboxylic acid], ≤ 0.01 µM.
The value for `Cc1cc(N2CC(c3c(Cl)cccc3Cl)C2)c(C)cc1CN1CCC(C(=O)O)CC1` [Compound 30, 1-(4-(3-(2,6-dichlorophenyl)azetidin-1-yl)-2,5-dimethylbenzyl)piperidine-4-carboxylic acid] was ≤ 0.01 µM.
To `O=C(O)C1CCN(C2CCc3cc(C4CN(c5ccccc5F)C4)ccc32)CC1` (single isomer, unassigned) [Compound 4a, 1-(5-(1-(2-fluorophenyl)azetidin-3-yl)-2,3-dihydro-1H-inden-1-yl)piperidine-4-carboxylic acid] belongs 0.01 to 0.1 µM; to `Cc1cc(C2CN(c3ccccc3C3CC3)C2)cc(C)c1CN1CCC(C(=O)O)CC1` [Compound 70, 1-(4-(1-(2-cyclopropylphenyl)azetidin-3-yl)-2,6-dimethylbenzyl)piperidine-4-carboxylic acid], 0.01 to 0.1 µM; to `O=C(O)C1CCN(Cc2ccc(C3CN(c4c(F)cccc4F)C3)cc2)CC1` [Compound 14, 1-(4-(1-(2,6-difluorophenyl)azetidin-3-yl)benzyl)piperidine-4-carboxylic acid], 0.1 to 1 µM.
Regarding `Cc1cc(C2CN(c3ccccc3F)C2)cc(C)c1CN1CCC(C(=O)O)CC1` [Compound 46, 1-(4-(1-(2-fluorophenyl)azetidin-3-yl)-2,6-dimethylbenzyl)piperidine-4-carboxylic acid], the EC50 fell in the range of 0.01 to 0.1 µM.
Take `Cc1cc(CN2CCC(C(=O)O)CC2)cc(C)c1N1CC(c2c(Cl)cccc2Cl)C1` [Compound 31, 1-(4-(3-(2,6-dichlorophenyl)azetidin-1-yl)-3,5-dimethylbenzyl)piperidine-4-carboxylic acid]: the EC50 is ≤ 0.01 µM.
In the case of `Cc1cc(C2CN(c3c(Cl)cccc3Cl)C2)cc(C)c1CN1CCC(C(=O)O)CC1C` (stereo not drawn) [Compound 63, 1-(4-(1-(2,6-dichlorophenyl)azetidin-3-yl)-2,6-dimethylbenzyl)-2-methyl-piperidine-4-carboxylic acid], the EC50 is 0.01 to 0.1 µM.
As to `O=C(O)C1CCN(Cc2ccc(N3CC(c4c(Cl)cccc4Cl)C3)nc2)CC1` [Compound 32, 1-((6-(3-(2,6-dichlorophenyl)azetidin-1-yl)pyridin-3-yl)methyl)piperidine-4-carboxylic acid], the EC50 fell in the range of 0.01 to 0.1 µM.
The value for `O=C(O)C1CCN(C2CCc3cc(N4CC(c5ccccc5F)C4)ccc32)CC1` (single isomer, unassigned) [Compound 10a, 1-(5-(3-(2-fluorophenyl)azetidin-1-yl)-2,3-dihydro-1H-inden-1-yl)piperidine-4-carboxylic acid] was 0.01 to 0.1 µM.

One may read the EC50 as the concentration that produces a half-maximal response.
